{"source": "patent US20250034586A1", "about": "“METHOD FOR EDITING BANANA GENES” (Tropic Biosciences UK Limited, priority 2021, published 2025)", "key": {"[1]": {"test_system": "ACO1, Ma01_g11540", "assay": "Trait co-editing in selected embryos (PBE #3)", "assay_type": "cell-based, banana", "conditions": "G418 selection", "method": "(§1) We transformed ECS as described previously in Example 6, using the new co-editing plasmids detailed in Table 11 above. Embryos were regenerated as detailed previously, either on media without selection, with 25 mg/L G418, 25 μg/L CSF or 50 μg/L CSF. Initial genotyping of all plasmids tested:\n(§2) • All with CsVMV-rAPOBEC1 CBE (rAPOBEC+nCas9 (D10A) PBE from Zong et al. 2017*) and nosP-NptII • pMol_0925 (sgGFP-pNOS::Kan::tOCS-pCsVMV::nCas9PBE1::tg7-Dummy-pTaU6::sg1GFP_58-pTaU6::sg2GFP_59) • pMol_0934 (sgGFP, sgALS1-pNOS::Kan::tOCS-pCsVMV::nCas9PBE1::tg7-taU6::MaALS1sg2_2021-pTaU6::sg1GFP_58-pTaU6::sg2GFP_59) • pMol_0935 (sgGFP, sgALS2-pNOS::Kan::tOCS-pCsVMV::nCas9PBE1::tg7-taU6::MaALS2sg2_2023-pTaU6::sg1GFP_58-pTaU6::sg2GFP_59) • pMol_0926 (sgPPO2, sgALS1-pNOS::Kan::tOCS-pCsVMV::nCas9PBE1::tg7-taU6::MaALS1sg2_2021-pTaU6::sg1PPO2_2961-pTaU6::sg2PPO2_2962-pTaU6::sg3PPO2_2963) • pMol_0927 (sgPPO2, sgALS1-pNOS::Kan::tOCS-pCsVMV::nCas9PBE1::tg7-taU6::MaALS1sg2_2021-pTaU6::sg3PPO2_2963-pTaU6::sg4PPO2_2964) • pMol_0928 (sgACO1, sgALS1-pNOS::Kan::tOCS-pCsVMV::nCas9PBE1::tg7-taU6::MaALS1sg2_2021-pTaU6::sg1ACO1_2965-pTaU6::sg2ACO1_2966-pTaU6::sg3ACO1_2967) • pMol_0929 (sgPPO2, sgALS2-pNOS::Kan::tOCS-pCsVMV::nCas9PBE1::tg7-taU6::MaALS2sg2_2023-pTaU6::sg1PPO2_2961-pTaU6::sg2PPO2_2962-pTaU6::sg3PPO2_2963) • pMol_0930 (sgPPO2, sgALS2-pNOS::Kan::tOCS-pCsVMV::nCas9PBE1::tg7-taU6::MaALS2sg2_2023-pTaU6::sg3PPO2_2963-pTaU6::sg4PPO2_2964) • pMol_0931 (sgACO1, sgALS2-pNOS::Kan::tOCS-pCsVMV::nCas9PBE1::tg7-taU6::MaALS2sg2_2023-pTaU6::sg1ACO1_2965-pTaU6::sg2ACO1_2966-pTaU6::sg3ACO1_2967) ECS were left to ‘recover’ after transformation for 1 week in CS+cefo 300 mg/L. We regenerated embryos in 4 different conditions: • 1. No selection • 2. Stable G418 selection (in EDM only 2-3 months) from PBE #3 only (PBE #1/2 plasmids only have mCherry, not NptII) • 3. 25 μg/L chlorsulfuron (in EDM only 2-3 months) • 4. 50 μg/L chlorsulfuron (in EDM only 2-3 months)\n(§3) gDNA from embryos and plantlets was extracted and qPCR was used to test for the presence of integrated tDNA in the plant genome. Three independent qPCRs were run on each sample with different sets of primers (listed below) spanning the tDNA, ranging from the left to right border. An additional qPCR was run on an endogenous banana gene (actin) for normalisation of Ct values. All qPCRs were run on the LightCycler® 96 System (Roche) using PowerUp™ SYBR® Green Master Mix (Thermo Fisher Scientific™).\n(§4) For edit validation, amplicons for each target gene (als1, als2, ppo2, aco1) were made using Q5® High-Fidelity 2× Master Mix (New England Biolabs, NEB) using reaction settings listed below. PCR products were purified using Monarch® PCR & DNA Cleanup Kit (NEB) according to manufacturer's specifications. The amplicons were after validated by Sanger sequencing."}, "[2]": {"test_system": "PPO2, Ma07_g03540", "assay": "Trait co-editing in selected embryos (PBE #3)", "assay_type": "cell-based, banana", "conditions": "G418 selection", "method": "as §1, §2, §3, §4"}, "[3]": {"test_system": "banana embryos or leaf material", "assay": "Comparison of selection using ALS inhibitor, G418 or hygromycin (genotyping of embryos or leaf material)", "assay_type": "cell-based", "conditions": "embryos", "text": "In every case, regenerated material was transformed with constructs containing T-DNA that would generate resistance in positive transformants."}}}
{"smiles": "CN[C@@H]1[C@@H](O)[C@@H](O[C@@H]2[C@@H](O)[C@H](O[C@H]3O[C@H]([C@@H](C)O)[C@@H](O)[C@H](O)[C@H]3N)[C@@H](N)C[C@H]2N)OC[C@]1(C)O", "note": "[Plasmid G418]", "values": [{"measurement": "Percentage edited ACO1 embryos", "setting": "[1]", "value": 33.33}, {"measurement": "ACO1 edited embryos total", "setting": "[1]; 6 embryos tested", "value": 2}, {"measurement": "Percentage edited PPO2 embryos", "setting": "[2]", "value": 31.25}, {"measurement": "PPO2 edited embryos total", "setting": "[2]; 16 embryos tested", "value": 5}, {"measurement": "Editing frequency", "setting": "[3]; stable selection", "value": "17/28 = 60.7%"}, {"measurement": "Transgenic frequency", "setting": "[3]; stable selection", "value": "18/28 = 64.3%"}, {"measurement": "Editing frequency", "setting": "[3]; transient selection", "value": "35/867 = 4.0%"}, {"measurement": "Non-transgenic edited", "setting": "[3]; transient selection", "value": "0/774 = 0%"}, {"measurement": "Transgenic frequency", "setting": "[3]; transient selection", "value": "95/943 = 10.1%"}]}
